Data as given in BindingDB's records for doi:10.1111/cbdd.12604 (Nanjing University, 2015).

Biological target: 72 kDa type IV collagenase (Homo sapiens, UniProt P08253)
Test: MMP-2 Inhibition Assay
Experimental: This esterase assay used 4-nitrophenylacetate as a substrate. Initially, the rhMMP-2 was diluted to 100 µg/mL with 1 mM APMA in assay buffer. Later, the reaction was incubated at 37℃ for 1 hour. Then the rhMMP-2 was diluted to 0.2 µg/mL in assay buffer, whereas the substrate was diluted to 20 µM by assay buffer. To each well of 96-well plate, 50 µL diluted rhMMP-2 was loaded along with 100 µL diverse concentration of test compounds. The reaction was started by adding 50 μL of 20 μM substrate to each well. After progress in kinetic mode for 5 minutes, the results were read at excitation and emission wavelengths of 320 nm and 405 nm, respectively.

Chain of 72 kDa type IV collagenase (P08253 whole entry): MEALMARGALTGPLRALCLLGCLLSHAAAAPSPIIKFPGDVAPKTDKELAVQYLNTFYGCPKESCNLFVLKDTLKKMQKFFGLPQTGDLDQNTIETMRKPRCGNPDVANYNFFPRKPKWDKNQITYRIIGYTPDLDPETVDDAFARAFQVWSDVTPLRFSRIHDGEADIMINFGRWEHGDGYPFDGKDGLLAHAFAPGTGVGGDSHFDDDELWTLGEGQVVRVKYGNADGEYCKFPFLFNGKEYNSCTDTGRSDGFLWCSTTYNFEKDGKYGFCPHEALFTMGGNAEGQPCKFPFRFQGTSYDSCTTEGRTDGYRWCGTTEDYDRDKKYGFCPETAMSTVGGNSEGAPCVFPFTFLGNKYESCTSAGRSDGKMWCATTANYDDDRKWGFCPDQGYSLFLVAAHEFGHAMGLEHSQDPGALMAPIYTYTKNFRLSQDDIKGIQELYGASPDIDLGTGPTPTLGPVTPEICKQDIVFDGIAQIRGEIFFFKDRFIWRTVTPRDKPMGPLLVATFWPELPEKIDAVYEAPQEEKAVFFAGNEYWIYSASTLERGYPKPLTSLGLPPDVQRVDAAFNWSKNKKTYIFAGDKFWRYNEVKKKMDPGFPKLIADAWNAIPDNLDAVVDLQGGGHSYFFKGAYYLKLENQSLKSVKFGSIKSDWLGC

Row | IC50 [µM] | SMILES
1 | 8.73 | NS(=O)(=O)c1ccc(N2N=C(c3ccc(Br)cc3)CC2c2cc(Br)ccc2O)cc1 (stereo unspecified) [4-(5-(5-Bromine-2-hydroxyphenyl)-3-(4-brominephenyl)-4,5-dihydropyrazole) benzene sulfonamide (4v)]
2 | 15.8 | NS(=O)(=O)c1ccc(N2N=C(c3ccc(Cl)cc3)CC2c2cc(Br)ccc2O)cc1 (stereo unspecified) [4-(5-(5-Bromine-2-hydroxyphenyl)-3-(4-chlorobenzene)-4,5-dihydropyrazole) benzene sulfonamide (4u)]
3 | 12.8 | NS(=O)(=O)c1ccc(N2N=C(c3ccccc3)CC2c2cc(Br)ccc2O)cc1 (stereo unspecified) [4-(5-(5-Bromine-2-hydroxyphenyl)-3-phenyl-4,5-dihydropyrazole) benzene sulfonamide (4q)]
4 | 16.4 | NS(=O)(=O)c1ccc(N2N=C(c3ccccc3Cl)CC2c2cc(Cl)ccc2O)cc1 (stereo unspecified) [4-(5-(5-Chloro-2-hydroxyphenyl) -3 - (2 - chlorobenzene) - 4, 5 - dihydropyrazole) benzene sulfonamide (4i)]
5 | 16.5 | NS(=O)(=O)c1ccc(N2N=C(c3ccc(Cl)c(Cl)c3)CC2c2ccc(Cl)cc2O)cc1 (stereo unspecified) [4-(5-(5-Chloro-2-hydroxyphenyl)-3-(3,4-dichlorobenzenebase)-4,5-dihydropyrazole) benzene sulfonamide (4n)]
6 | 2.13 | COc1cccc(C2=NN(c3ccc(S(N)(=O)=O)cc3)C(c3cc(Cl)ccc3O)C2)c1 (stereo unspecified) [4-(5-(5-Chloro-2-hydroxyphenyl)-3-(3-oxygenmethylphenyl)-4,5-dihydropyrazole) benzene sulfonamide (4p)]
7 | 11.3 | NS(=O)(=O)c1ccc(N2N=C(c3ccc(Cl)cc3)CC2c2cc(Cl)ccc2O)cc1 (stereo unspecified) [4-(5-(5-Chloro-2-hydroxyphenyl)-3-(4-chlorobenzene)-4,5-dihydropyrazole) benzene sulfonamide (4k)]
8 | 3.84 | CCOc1ccc(C2=NN(c3ccc(S(N)(=O)=O)cc3)C(c3ccc(Cl)cc3O)C2)cc1 (stereo unspecified) [4-(5-(5-Chloro-2-hydroxyphenyl)-3-(4-phenylethyloxygen)-4,5-dihydropyrazole) benzene sulfonamide (4o)]
9 | 13.5 | NS(=O)(=O)c1ccc(N2N=C(c3ccccc3)CC2c2ccc(Cl)cc2O)cc1 (stereo unspecified) [4-(5-(5-Chloro-2-hydroxyphenyl)-3-phenyl)-4,5-dihydro benzene sulfonamide pyrazole) (4j)]
10 | 4.62 | COc1ccc(C2=NN(c3ccc(S(N)(=O)=O)cc3)C(c3ccc(Cl)cc3O)C2)cc1 (stereo unspecified) [-(5-(5-Chloro-2-hydroxyphenyl)-3-(4-methylphenyloxygen)-4,5-dihydropyrazole) benzene sulfonamide (4l)]

The next lines start with the compound.

Row | SMILES | IC50 [µM]
11 | NS(=O)(=O)c1ccc(N2N=C(c3ccccc3Cl)CC2c2ccccc2O)cc1 (stereo unspecified) [4-(3-(2-Chlorobenzene)-5-(2-hydroxyphenyl)-4,5-dihydropyrazole) benzene sulfonamide (4b)] | 11.5
12 | NS(=O)(=O)c1ccc(N2N=C(c3ccc(Cl)c(Cl)c3)CC2c2ccccc2O)cc1 (stereo unspecified) [4-(3-(3,4-Dichlorobenzenebase)-5-(2-hydroxyphenyl)-4,5-dihydropyrazole) benzene sulfonamide (4g)] | 12.9
13 | Cc1ccc(C2=NN(c3ccc(S(N)(=O)=O)cc3)C(c3ccccc3O)C2)cc1C (stereo unspecified) [4-(3-(3,4-Dimethylphenyl)-5-(2-hydroxyphenyl)-4,5-dihydropyrazole) benzene sulfonamide (4f)] | 4.65
14 | NS(=O)(=O)c1ccc(N2N=C(c3ccc(Br)cc3)CC2c2cc(Cl)ccc2O)cc1 (stereo unspecified) [4-(3-(4-Brominephenyl)-5-(5-chloro-2-hydroxyphenyl)-4,5-dihydropyrazole) benzene sulfonamide (4m)] | 18.9
15 | COc1cccc(C2=NN(c3ccc(S(N)(=O)=O)cc3)C(c3ccccc3O)C2)c1 (stereo unspecified) [4-(5-(2-Hydroxyphenyl)-3-(3-oxygenmethylphenyl)-4,5-dihydropyrazole) benzene sulfonamide (4e)] | 1.81
16 | NS(=O)(=O)c1ccc(N2N=C(c3ccc(F)cc3)CC2c2ccccc2O)cc1 (stereo unspecified) [4-(5-(2-Hydroxyphenyl)-3-(4-fluorinatedphenyl)-4,5-dihydropyrazole) benzene sulfonamide (4x)] | 24.7
17 | COc1ccc(C2=NN(c3ccc(S(N)(=O)=O)cc3)C(c3ccccc3O)C2)cc1 (stereo unspecified) [4-(5-(2-Hydroxyphenyl)-3-(4-methoxyphenyl)-4,5-dihydropyrazole) benzene sulfonamide (4y)] | 1.83
18 | NS(=O)(=O)c1ccc(N2N=C(c3ccccc3Cl)CC2c2cc(Br)ccc2O)cc1 (stereo unspecified) [4-(5-(5-Bromine-2-hydroxyphenyl)-3-(2-chlorobenzene)-4,5-dihydropyrazole) benzene sulfonamide (4t)] | 15
19 | NS(=O)(=O)c1ccc(N2N=C(c3ccc(Cl)c(Cl)c3)CC2c2cc(Br)ccc2O)cc1 (stereo unspecified) [4-(5-(5-Bromine-2-hydroxyphenyl)-3-(3,4-dichlorobenzene)-4,5-dihydropyrazole) benzene sulfonamide (4w)] | 16.2
20 | COc1cccc(C2=NN(c3ccc(S(N)(=O)=O)cc3)C(c3cc(Br)ccc3O)C2)c1 (stereo unspecified) [4-(5-(5-Bromine-2-hydroxyphenyl)-3-(3-oxygenmethylphenyl)-4,5-dihydropyrazole) benzene sulfonamide (4r)] | 3.23
21 | C[C@@]1(O)c2cccc(O)c2C(O)=C2C(=O)[C@]3(O)C(O)=C(C(N)=O)C(=O)C[C@@H]3C[C@@H]21 [(4aS,5aS,6S,12aR)-1,6,10,11,12a-pentahydroxy-6-methyl-3,12-dioxo-4,4a,5,5a-tetrahydrotetracene-2-carboxamide] | 1.13
